In ChEMBL document CHEMBL1909046, “DrugMatrix in vitro pharmacology data”:

Key:
[1] = DRUGMATRIX: Sigma2 radioligand binding (ligand: [3H] Ifenprodil); format: cell membranes, Rattus norvegicus, Wistar, Brain, Membrane; conditions: Not Active = under 50% inhibition at 10 µM
[2] = DRUGMATRIX: Calcium Channel Type L, Phenylalkylamine radioligand binding (ligand: [3H] (-)-Desmethoxyverapamil (D-888)); format: cell membranes, Rattus norvegicus, Wistar, Brain, Membrane; conditions: Not Active = under 50% inhibition at 10 µM
[3] = target: T1, C-X-C chemokine receptor type 2 (Homo sapiens, UniProt P25025); format: cell membranes, Membrane; conditions: cho-k1; note: in other assays of this panel Not Active means under 50% inhibition at 10 µM
T1 sequence (P25025 whole entry): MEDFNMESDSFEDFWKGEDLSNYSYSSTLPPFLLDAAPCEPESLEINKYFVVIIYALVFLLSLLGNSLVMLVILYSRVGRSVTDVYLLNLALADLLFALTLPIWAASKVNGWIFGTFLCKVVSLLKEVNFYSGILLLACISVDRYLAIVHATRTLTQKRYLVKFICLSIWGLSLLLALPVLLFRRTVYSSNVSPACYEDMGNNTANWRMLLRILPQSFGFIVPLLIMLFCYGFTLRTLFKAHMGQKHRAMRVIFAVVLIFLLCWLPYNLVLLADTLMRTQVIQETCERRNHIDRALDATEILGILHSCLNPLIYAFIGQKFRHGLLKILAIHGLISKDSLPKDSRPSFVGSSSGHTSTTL

[4] = target: T2, Neuropeptide Y receptor type 2 (Homo sapiens, UniProt P49146); format: cell membranes, Membrane; conditions: kan-ts; note: in other assays of this panel Not Active means under 50% inhibition at 10 µM
T2 sequence (P49146 whole entry): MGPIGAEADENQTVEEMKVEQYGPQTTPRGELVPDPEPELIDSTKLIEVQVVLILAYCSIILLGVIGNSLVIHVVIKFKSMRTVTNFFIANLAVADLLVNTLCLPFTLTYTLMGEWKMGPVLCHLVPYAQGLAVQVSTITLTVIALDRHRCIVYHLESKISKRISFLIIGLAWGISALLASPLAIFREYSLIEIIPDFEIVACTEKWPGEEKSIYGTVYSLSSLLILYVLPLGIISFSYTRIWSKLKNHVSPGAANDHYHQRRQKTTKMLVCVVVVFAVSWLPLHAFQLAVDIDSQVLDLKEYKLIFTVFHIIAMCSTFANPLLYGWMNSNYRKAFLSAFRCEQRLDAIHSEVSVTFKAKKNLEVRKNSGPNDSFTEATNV

Progesterone receptor = target: T3, Progesterone receptor (Bos taurus, UniProt Q690N0); test: DRUGMATRIX: Progesterone radioligand binding (ligand: [3H] R-5020); format: tissue-based, Uterus; conditions: Not Active = under 50% inhibition at 10 µM
T3 sequence (Q690N0 whole entry): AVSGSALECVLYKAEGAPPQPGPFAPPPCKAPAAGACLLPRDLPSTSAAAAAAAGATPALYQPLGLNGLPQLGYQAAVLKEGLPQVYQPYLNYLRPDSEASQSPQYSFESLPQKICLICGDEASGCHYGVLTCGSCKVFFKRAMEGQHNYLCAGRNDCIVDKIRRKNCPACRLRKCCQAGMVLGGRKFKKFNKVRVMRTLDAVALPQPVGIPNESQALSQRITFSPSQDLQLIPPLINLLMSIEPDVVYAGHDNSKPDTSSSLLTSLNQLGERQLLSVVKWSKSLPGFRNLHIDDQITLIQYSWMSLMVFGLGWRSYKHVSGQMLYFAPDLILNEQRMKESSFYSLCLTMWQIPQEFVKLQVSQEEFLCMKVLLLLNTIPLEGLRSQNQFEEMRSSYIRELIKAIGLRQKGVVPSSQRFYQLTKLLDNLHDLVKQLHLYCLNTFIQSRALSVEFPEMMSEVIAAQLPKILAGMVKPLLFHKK

Cytochrome P450 2C19 = Cytochrome P450 2C19 (Homo sapiens, UniProt P33261); conditions: bti-tn-5b1-4; note: in other assays of this panel Not Active means under 50% inhibition at 10 µM
Cytochrome P450 2C19, sequence (P33261 whole entry): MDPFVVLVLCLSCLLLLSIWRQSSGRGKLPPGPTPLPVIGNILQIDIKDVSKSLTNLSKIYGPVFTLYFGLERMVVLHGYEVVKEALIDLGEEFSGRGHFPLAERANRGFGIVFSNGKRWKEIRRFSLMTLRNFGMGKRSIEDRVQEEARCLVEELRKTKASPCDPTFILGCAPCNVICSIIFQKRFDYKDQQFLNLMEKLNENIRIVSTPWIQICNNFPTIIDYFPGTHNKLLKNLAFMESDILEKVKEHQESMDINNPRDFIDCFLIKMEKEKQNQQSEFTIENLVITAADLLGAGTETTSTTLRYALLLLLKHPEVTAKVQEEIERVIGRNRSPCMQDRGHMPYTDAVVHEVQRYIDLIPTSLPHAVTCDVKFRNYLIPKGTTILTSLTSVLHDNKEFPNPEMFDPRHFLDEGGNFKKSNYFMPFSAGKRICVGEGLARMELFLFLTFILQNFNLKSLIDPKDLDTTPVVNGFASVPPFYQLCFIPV

[5] = target: Voltage-gated inwardly rectifying potassium channel KCNH2 (Homo sapiens, UniProt Q12809); conditions: hek293; note: in other assays of this panel Not Active means under 50% inhibition at 10 µM
Voltage-gated inwardly rectifying potassium channel KCNH2, sequence (Q12809 whole entry): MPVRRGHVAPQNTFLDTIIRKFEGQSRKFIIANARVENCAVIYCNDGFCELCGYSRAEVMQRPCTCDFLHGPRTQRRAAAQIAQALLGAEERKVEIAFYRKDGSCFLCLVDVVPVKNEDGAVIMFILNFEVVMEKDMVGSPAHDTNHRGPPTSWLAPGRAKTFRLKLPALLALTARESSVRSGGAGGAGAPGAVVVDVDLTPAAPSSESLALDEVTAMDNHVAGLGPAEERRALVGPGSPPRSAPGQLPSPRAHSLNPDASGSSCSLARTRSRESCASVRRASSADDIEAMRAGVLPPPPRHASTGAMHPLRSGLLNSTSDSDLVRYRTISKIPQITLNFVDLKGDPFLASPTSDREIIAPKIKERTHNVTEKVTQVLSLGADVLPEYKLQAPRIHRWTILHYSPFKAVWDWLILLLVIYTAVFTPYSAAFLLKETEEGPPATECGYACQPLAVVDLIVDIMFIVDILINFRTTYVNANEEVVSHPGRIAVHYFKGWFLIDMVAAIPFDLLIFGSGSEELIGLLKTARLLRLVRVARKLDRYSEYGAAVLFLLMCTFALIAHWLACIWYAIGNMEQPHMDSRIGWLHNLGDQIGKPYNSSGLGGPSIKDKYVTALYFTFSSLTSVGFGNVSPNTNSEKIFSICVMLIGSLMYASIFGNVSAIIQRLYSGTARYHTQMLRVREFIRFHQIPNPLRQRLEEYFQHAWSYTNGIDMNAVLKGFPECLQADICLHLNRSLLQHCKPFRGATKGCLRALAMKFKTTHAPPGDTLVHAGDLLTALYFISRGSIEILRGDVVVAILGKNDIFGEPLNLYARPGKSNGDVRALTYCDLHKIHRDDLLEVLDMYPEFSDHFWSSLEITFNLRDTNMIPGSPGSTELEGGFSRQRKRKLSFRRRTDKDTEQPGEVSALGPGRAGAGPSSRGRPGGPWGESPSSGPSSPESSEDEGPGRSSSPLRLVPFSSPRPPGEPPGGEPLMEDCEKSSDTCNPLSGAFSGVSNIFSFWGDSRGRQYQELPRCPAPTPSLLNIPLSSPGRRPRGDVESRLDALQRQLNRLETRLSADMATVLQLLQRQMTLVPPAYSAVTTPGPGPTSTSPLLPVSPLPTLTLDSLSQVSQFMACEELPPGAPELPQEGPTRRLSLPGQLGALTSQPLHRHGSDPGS

CC(O)COC[C@H]1O[C@@H]2O[C@H]3[C@H](O)[C@@H](O)[C@@H](O[C@H]4[C@H](O)[C@@H](O)[C@@H](O[C@H]5[C@H](O)[C@@H](O)[C@@H](O[C@H]6[C@H](O)[C@@H](O)[C@@H](O[C@H]7[C@H](O)[C@@H](O)[C@@H](O[C@H]8[C@H](O)[C@@H](O)[C@@H](O[C@H]1[C@H](O)[C@H]2O)O[C@@H]8COCC(C)O)O[C@@H]7COCC(C)O)O[C@@H]6COCC(C)O)O[C@@H]5COCC(C)O)O[C@@H]4COCC(C)O)O[C@@H]3COCC(C)O (stereo partly drawn) [2-HYDROXYPROPYL-BETA-CYCLODEXTRIN]
Not Active: IC50 [1] | Ki [1] | IC50 [2] | Ki [2] | IC50 [3] | IC50 [4] | IC50 (Progesterone receptor) | IC50 (Cytochrome P450 2C19) | Ki (Cytochrome P450 2C19) | IC50 [5] | Ki [5]

NC(=O)c1cccc(N)c1 [3-AMINOBENZAMIDE]
Not Active: IC50 [1] | Ki [1] | IC50 [2] | Ki [2] | IC50 [3] | IC50 [4] | IC50 (Progesterone receptor) | IC50 (Cytochrome P450 2C19) | Ki (Cytochrome P450 2C19) | IC50 [5] | Ki [5]

C[C@H]1O[C@H](O[C@H]2[C@H](O)[C@@H](O)[C@@H](O[C@H]3[C@H](O)[C@@H](O)C(O)O[C@@H]3CO)O[C@@H]2CO)[C@H](O)[C@@H](O)[C@@H]1N[C@H]1C=C(CO)[C@@H](O)[C@H](O)[C@H]1O (stereo not given in full) [ACARBOSE]
Not Active: IC50 [1] | Ki [1] | IC50 [2] | Ki [2] | IC50 [3] | IC50 [4] | IC50 (Progesterone receptor) | IC50 (Cytochrome P450 2C19) | Ki (Cytochrome P450 2C19) | IC50 [5] | Ki [5]

CC[C@H]1[C@@H]2C[C@H]3[C@@H]4N(C)c5ccccc5[C@]45C[C@@H]([C@@H]2[C@H]5O)N3[C@@H]1O [AJMALINE]
Not Active: IC50 [1] | Ki [1] | IC50 [2] | Ki [2] | IC50 [3] | IC50 [4] | IC50 (Progesterone receptor) | IC50 (Cytochrome P450 2C19) | Ki (Cytochrome P450 2C19) | IC50 [5] | Ki [5]

CC(=O)Oc1ccccc1C(=O)O [ASPIRIN]
Not Active: IC50 [1] | Ki [1] | IC50 [2] | Ki [2] | IC50 [3] | IC50 [4] | IC50 (Progesterone receptor) | IC50 (Cytochrome P450 2C19) | Ki (Cytochrome P450 2C19) | IC50 [5] | Ki [5]

CC(=O)OC[C@H]1O[C@@H](n2ncc(=O)[nH]c2=O)[C@H](OC(C)=O)[C@@H]1OC(C)=O [AZARIBINE]
Not Active: IC50 [1] | Ki [1] | IC50 [2] | Ki [2] | IC50 [3] | IC50 [4] | IC50 (Progesterone receptor) | IC50 (Cytochrome P450 2C19) | Ki (Cytochrome P450 2C19) | IC50 [5] | Ki [5]

C[C@H]1[C@H](NC(=O)/C(=N\OC(C)(C)C(=O)O)c2csc(N)n2)C(=O)N1S(=O)(=O)O [AZTREONAM]
Not Active: IC50 [1] | Ki [1] | IC50 [2] | Ki [2] | IC50 [3] | IC50 [4] | IC50 (Progesterone receptor) | IC50 (Cytochrome P450 2C19) | Ki (Cytochrome P450 2C19) | IC50 [5] | Ki [5]

O=C(O)CCNC(=O)c1ccc(/N=N/c2ccc(O)c(C(=O)O)c2)cc1 [BALSALAZIDE]
Not Active: IC50 [1] | Ki [1] | IC50 [2] | Ki [2] | IC50 [3] | IC50 [4] | IC50 (Progesterone receptor) | IC50 (Cytochrome P450 2C19) | Ki (Cytochrome P450 2C19) | IC50 [5] | Ki [5]

COc1cc(OC)c(C(=O)CCCN2CCCC2)c(OC)c1 [BUFLOMEDIL]
Not Active: IC50 [1] | Ki [1] | IC50 [2] | Ki [2] | IC50 [3] | IC50 [4] | IC50 (Progesterone receptor) | IC50 (Cytochrome P450 2C19) | Ki (Cytochrome P450 2C19) | IC50 [5] | Ki [5]

Cn1c(=O)c2c(ncn2C)n(C)c1=O [CAFFEINE]
Not Active: IC50 [1] | Ki [1] | IC50 [2] | Ki [2] | IC50 [3] | IC50 [4] | IC50 (Progesterone receptor) | IC50 (Cytochrome P450 2C19) | Ki (Cytochrome P450 2C19) | IC50 [5] | Ki [5]
